Test results: patent US20110301192A1, “Inhibitors of Cyclin Kinase Inhibitor p21” (The regents of the University of California, priority 2008, published 2011)
“Also recorded” adds a separate entry of the source.

Tests used:
ACHN and A-498 cells [1] = test: MTT cytotoxic assay (cell viability) in RCC cell lines; type: cell-based, human; settings: 10, 50 and 100 μM in complete media, 48 hr
Description: After 48 hr, the MTT assay was performed as described below. The visible absorbance of each well was quantified using a microplate reader.
ACHN and A498 human RCC cells (from ATCC) were maintained in MEM 1× media supplemented with 10% fetal bovine serum, 2 mM L-glutamine, 1 mM sodium pyruvate, 0.1 mM non-essential amino acid, and 0.75% sodium bicarbonate at 37° C. in a humidified incubator containing 5% CO2 in air.
(§1) A 200 μL aliquot of cells (1×10^3 cells in quiescent media) was added to a 96 well plate and incubated for 18 hr at 37° C. in a humidified incubator containing 5% CO2 in air. After incubation, each condition of small molecule ligands (No. 4, 7, and 10) was added into each well for 48 hr and for synergic assay of Doxorubicin, after incubation for 6 hr with compound No. 10, Doxorubicin dissolved in DMSO was added to each of the 96 wells and incubated for 42 hr. Control cultures were treated with DMSO. After incubation, a 20 μL MTT solution (5 mg/mL in phosphate buffer) was added to each well and the incubation continued for 4 hr, after which time the solution in each well was carefully removed. The blue crystalline precipitate in each well was dissolved in DMSO 200 μL). The visible absorbance at 560 nm of each well was quantified using a microplate reader.

p21 [2] = target: T1, p21 (Homo sapiens, UniProt P38936); test: Immunoblotting of p21 protein levels in RCC cells; type: cell-based; settings: serum-starved ACHN and A-498 cells; 10, 50 and 100 μM; immunoblot
Text: (§2) Chemiluminescence was detected using enhanced ECL.

p27 = test: Immunoblotting of p27 protein levels in RCC cells; type: cell-based, human; settings: all concentrations examined (10, 50, 100 μM); immunoblot
Text: as §2

p57 = test: Immunoblotting of p57 protein levels in RCC cells; type: cell-based, human; settings: all concentrations examined (10, 50, 100 μM); immunoblot
Text: as §2

[3] = target: T2, GST-tagged p21 recombinant protein (GST-p21) (Homo sapiens, UniProt P38936); test: Two-step OBOC bead screening with recombinant GST-p21; type: binding; settings: OBOC beads, GST-p21 probe, GST-alone subtraction
T2 construct: purchased ProSpec-Tany TechnoGene Ltd. (Rehovot, Israel)
Description: OBOC beads tethered with small molecule ligands were incubated with recombinant GST-p21 (or GST alone as control) and incubated with anti-GST antibodies conjugated with alkaline phosphatase. Blue beads in stage 2 were discarded and the true positive beads (i.e., clear beads in stage 2 which indicate binding only to p21) were picked up and submitted for MS decoding.
A two-step screening of the small molecule OBOC combinatorial library was performed using GST-tagged p21 recombinant protein (GST-p21) from ProSpec-Tany TechnoGene Ltd. (Rehovot, Israel) (FIG. 2). Screening was conducted in small disposable chromatography columns. Each screening used 25,000-30,000 beads that were first blocked with 0.1% BSA in PBS with 0.1% Tween 20 (PBST). In Stage 1 of the procedure, the beads were incubated with a 1:10,000 dilution of GST-p21, washed, incubated with anti-GST antibody conjugated with alkaline phosphatase (anti-GST-AP), washed, and incubated with the phosphatase substrate 5-bromo-4-chloro-3-indolyl-phosphate (BCIP). Beads became blue and were selected for next step. Stage 2 of the procedure was to remove the false positive beads that are interacting with GST and anti-GST-AP not p21. The beads from Stage 1 were incubated with 8 M guanidine-HCl for removing bound proteins and DMF for removing blue color followed by PBST washing and re-blocking with PBST. And then the beads were incubated with GST alone, washed, incubated with anti-GST-AP, washed, and incubated with the phosphatase substrate BCIP. From this step, the clear beads were considered true positive beads, therefore they were selected and deproteinated with 8 M guanidine-HCl prior to decoding with mass spectrometry.

ACHN and A-498 cells [4] = test: Apoptosis by PARP cleavage (immunoblot) in RCC cells; settings: up to 72 h
Description: Cells were harvested and immunoblotted with p57, p27, and p21. […] Cells were harvested and immunoblotted with PARP and p21. β-actin is a gel-loading control.
Cells were washed with PBS and lysed in lysis buffer (50 mM HEPES, 1% Triton X-100, 10 mM sodium pyrophosphate, 100 mM sodium fluoride, 4 mM EDTA) at 0° C. Cell lysates were centrifuged (13,000×g, 4° C., 20 min) and the supernatants were electrophoresed and immunoblotted. For immunoprecipitation, cell lysates were incubated with p21 antibody agarose-conjugate overnight at 4° C. and immunoprecipitates were washed five times with lysis buffer. The bound proteins were eluted with SDS sample buffer and elctophoresed and immnoblotted. The membranes were blocked in 5% non-fat dry milk for 1 hr at room temperature, and probed with appropriate antibodies. Membranes were then probed with HRP-tagged anti-mouse or anti-rabbit IgG antibodies diluted 1:5,000-1:15,000 in 5% non-fat dry milk for 1 hr at room temperature. Chemiluminescence was detected using enhanced ECL.

kidney cancer cell lines = test: MTT cytotoxic assay in kidney cancer cell lines (FIG. 8); type: cell-based; settings: kidney cancer cells; 1, 10 or 20 μM in complete media; 48 hr
Description: The kidney cancer cells were incubated in serum-free media for 16 hr and treated with vehicle (DMSO) and serum-containing complete media (CM) alone or the indicated compounds (at 1, 10 or 20 μM) in CM. After 48 hr, the MTT assay was performed as described below. The visible absorbance of each well was quantified using a microplate reader.
as §1

p21 [5] = target: T1, p21; test: p21 stability with cycloheximide or proteasome inhibitors (immunoblot); type: cell-based; settings: ACHN and A-498 cells; 100 μM; with cycloheximide 10 μg/ml or proteasome inhibitors (lactacystin, LLnL, MG132, 20 μM)
Description: ACHN and A-498 cells were incubated in serum-free media for 16 hr and treated with (a) compound 10 (100 μM), cycloheximide (CHX, 10 μg/ml), or compound 10 plus CHX for the indicated time, or (b) three different proteasome inhibitors (lactascystin, 20 μM; LLnL, 20 μM; MG132, 20 μM) for 6 h and followed by incubation of compound 10 (100 μM) for the indicated time. The density ratio of p21/actin is shown. Q refers to cells incubated in serum-free media only; P refers to cells incubated with PDGF only.
as §2

p21 [6] = target: T1, p21; test: p21 ubiquitinylation (immunoprecipitation with p21 antibody, ubiquitin immunoblot); type: cell-based; settings: ACHN and A-498 cells; 100 μM
Description: ACHN and A-498 cells were incubated in serum-free media for 16 hr and treated or not treated with compound 10 (100 μM) for the indicated times. Cells were harvested and immunoprecipitated with p21 antibody-agarose conjugate and immuno-blotted with either p21 or ubiquitin. Ponceau-staining heavy chain of anti-p21-IgG was performed on the same lysate as loading control.
as §2

ACHN and A-498 cells [7] = test: MTT synergy assay with doxorubicin; type: cell-based, human; settings: 100 μM, after 6 h doxorubicin 0.1 and 0.25 μM for 42 h
Description: (§3) After 6 h, doxorubicin was added (0.1 and 0.25 μM) in serum containing media followed in 42 h by (a) the MTT assay as described below; and (b) immunoblotting with PARP, p21, and β-actin.
as §1

ACHN and A-498 cells [8] = test: Apoptosis (PARP immunoblot) in combination with doxorubicin; type: cell-based, human; settings: 100 μM, after 6 h doxorubicin 0.1 and 0.25 μM for 42 h
Description: as §3, §2

T2 sequence (P38936 whole entry): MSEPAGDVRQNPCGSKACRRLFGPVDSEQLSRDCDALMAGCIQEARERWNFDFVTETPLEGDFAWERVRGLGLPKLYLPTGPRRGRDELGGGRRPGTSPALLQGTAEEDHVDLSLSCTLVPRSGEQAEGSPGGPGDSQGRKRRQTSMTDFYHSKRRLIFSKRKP
T1 sequence (P38936 whole entry): as above

Row | SMILES | cell survival / cell viability (MTT assay) (ACHN and A-498 cells [1]) | p21 protein levels (p21 [2]) | p27 protein levels (p27) | p57 protein levels (p57) | binding to p21 [3] | apoptosis as measured by PARP cleavage (ACHN and A-498 cells [4]) | cell survival / cell viability (MTT assay) (kidney cancer cell lines) | also measured
1 | Cc1ccc(C)c(-c2nc3cc(C(CC(N)=O)NC(=O)Nc4ccccc4C)ccc3n2CCCN2CCCCC2C)c1 (centres unmarked) [No. 7] | dose-dependent inhibition of cell survival; also recorded: decreased; also recorded: decreasing cell viability | markedly and specifically inhibited | no affect | no affect | p21-binding | increased |  | 
2 | Cc1ccc(C)c(-c2nc3cc(C(CC(N)=O)NC(=O)Nc4ccccc4C(C)(C)C)ccc3n2CCCN2CCCCC2C)c1 (centres unmarked) [No. 4] | dose-dependent inhibition of cell survival; also recorded: decreased; also recorded: decreasing cell viability | markedly and specifically inhibited | no affect | no affect | p21-binding | increased |  | 
3 | Cc1ccccc1NC(=O)NC(CC(N)=O)c1ccc2c(c1)nc(-c1cccc(Oc3ccc(C(C)(C)C)cc3)c1)n2CCC1CCCCN1C (centres unmarked) [LLW38] |  |  |  |  |  |  | dose-dependent inhibition of cell survival; also recorded: decreasing cell viability | 
4 | Cc1ccccc1NC(=O)NC(CC(N)=O)c1ccc2c(c1)nc(-c1c3ccccc3cc3ccccc13)n2CCCN1CCCCC1C (centres unmarked) [No. 10] | dose-dependent inhibition of cell survival; also recorded: decreased; also recorded: decreasing cell viability | markedly and specifically inhibited | no affect | no affect | p21-binding | increased |  | p21 stability (p21 [5]): decreases p21 stability via a proteasome-mediated pathway; ubiquitinylation of p21 (p21 [6]): causes ubiquitinylation of p21; also recorded: p21 protein is bound by ubiquitin; cell survival in combination with doxorubicin (MTT assay) (ACHN and A-498 cells [7]): synergistic decrease in cell survival; also recorded: synergistic anti-proliferative activity; apoptosis in combination with doxorubicin (PARP immunoblot) (ACHN and A-498 cells [8]): increase in apoptosis
5 | CCN(CC)CCCn1c(-c2cccc(Oc3ccc(C(C)(C)C)cc3)c2)nc2cc(C(CC(N)=O)NC(=O)Nc3ccccc3C)ccc21 (centres unmarked) [LLW33] |  |  |  |  |  |  | dose-dependent inhibition of cell survival; also recorded: decreasing cell viability | 
6 | Cc1ccccc1NC(=O)NC(CC(N)=O)c1ccc2c(c1)nc(-c1cccc(Oc3ccc(C(C)(C)C)cc3)c1)n2CCCN1CCCC1 (centres unmarked) [LLW36] |  |  |  |  |  |  | dose-dependent inhibition of cell survival; also recorded: decreasing cell viability | 
7 | Cc1ccccc1NC(=O)NC(CC(N)=O)c1ccc2c(c1)nc(-c1cccc(Oc3ccc(C(C)(C)C)cc3)c1)n2CC[C@@H]1CCCN2CCCC[C@H]12 (some centres unmarked) [LLW40] |  |  |  |  |  |  | dose-dependent inhibition of cell survival; also recorded: decreasing cell viability | 
8 | Cc1ccccc1NC(=O)NC(CC(N)=O)c1ccc2c(c1)nc(-c1cccc(Oc3ccc(C(C)(C)C)cc3)c1)n2CCCN1CCC(C)CC1 (centres unmarked) [LLW39] |  |  |  |  |  |  | dose-dependent inhibition of cell survival; also recorded: decreasing cell viability | 
9 | Cc1ccccc1NC(=O)NC(CC(N)=O)c1ccc2c(c1)nc(-c1cccc(Oc3ccc(C(C)(C)C)cc3)c1)n2CCCN1CCCCC1C (centres unmarked) [LLW15] |  |  |  |  |  |  | dose-dependent inhibition of cell survival; also recorded: decreasing cell viability | 
10 | Cc1ccccc1NC(=O)NC(CC(N)=O)c1ccc2c(c1)nc(-c1cccc(Oc3ccc(C(C)(C)C)cc3)c1)n2C1CCN(Cc2ccccc2)CC1 (centres unmarked) [LLW42] |  |  |  |  |  |  | dose-dependent inhibition of cell survival; also recorded: decreasing cell viability | 
